# Measurements reported in US7795226B2, “Control of radiation injury” (Biotempt B.V., priority 2006, dated 2010).
# Tests used:
# Type in all cases: in vivo
# [1] = system: renal ischemia reperfusion in mice; assay: mouse renal ischemia reperfusion test; parameters: BUN after 25 minutes renal ischemia, mean / Urea levels in dose-response experiment: unit not given here; details: for BUN concentration versus the PBS control group (in words) / mortality versus the PBS control group (in words) / BUN after 25 minutes renal ischemia, mean: 5 mg/kg i.v.; for mortality at 72 hours post-reperfusion: 5 mg/kg i.v. before and after 25 minutes clamping, dead/total
# Method: Six oligopeptides (i.e., A: LAGV (SEQ ID NO:121); B: AQGV (SEQ ID NO:120); C: LAG; D: AQG; E: MTR; and F: MTRV (SEO ID NO:119)) were tested and compared with PBS (control) in a double blind animal study for each peptide's relative ability to aid recovery in a mouse renal ischemia reperfusion test. In this test, the mice were anesthetized, and one kidney from each mouse was removed. The other kidney was tied off for 25 minutes, and the serum urea levels were allowed to increase. Both before and after tying off, each of the separate peptides was administered to thirty (30) different mice (5 mg oligopeptide / kg body mass intravenously), after which, the mortality of the mice was determined for each oligopeptide as well as was the BUN concentration at two hours, 24 hours and 72 hours. The results are shown in Table 3 below (excluding the results of peptide A (LAGV (SEQ ID NO:121)) obtained in Example 3).
# Under inhalation anesthesia, the left kidney with its artery and vein was isolated and occluded for 25 minutes using a microvascular clamp. During surgery, animals were placed on a heating pad to maintain body temperature at 37° C. Five minutes before placing the clamp, and five minutes before releasing the clamp, 5 mg/kg of peptide dissolved in 0.1 mL of sterile saline, was administered intravenously. After reperfusion of the left kidney, the right kidney was removed. Kidney function was assessed by measuring blood urea nitrogen before clamping, and at 2, 24, and 72 hours after reperfusion.
# Peptides were tested at 0.3, 1, 3, 10 and 30 mg/kg dosages given as described in Example 3. P values (calculated by Mann Whitney U-test (SPSS for Windows)) of serum urea levels of PBS compared to peptide D groups at 72 hours post-clamping were at 0.3 mg/kg 0.001, at 1 mg/kg 0.009, at 3 mg/kg 0.02, at 10 mg/kg 0.000, and at 30 mg/kg 0.23; for peptide B (SEQ ID NO:120) groups, these P-values were 0.88, 0.054, 0.000, 0.001 and 0.003.
# [2] = system: high dose LPS (E. coli 026:B6)-induced septic shock in BALB/c mice; assay: high dose LPS-induced septic shock, peptide administered twice; details: peptide twice (t = 2 and 24 hours) 5 mg/kg
# Method: (§1) Mice used in sepsis or septic shock experiments: Female BALB/c mice of eight to twelve weeks of age were used for all experiments. The animals were bred in our facility under specific pathogen-free conditions according to the protocols described in the […] of European Laboratory Animal Science Associations (FELASA) Working group on Animal Health (Laboratory Animals 28:1-24, 1994).
# (§2) Injection protocols: For the endotoxin model, BALB/c mice were injected i.p. with 150-300 μg LPS (E. coli 026:B6; Difco Lab., Detroit, Mich., USA). Control groups were treated with PBS i.p. only. To test the effect of peptides, they were dissolved in PBS and injected i.p. at predetermined points in time after LPS treatment.
# Mice were scored for sickness severity using the following measurement scheme: • 0 No abnormalities. • 1 Percolated fur, but no detectable behavior differences compared to normal mice. • 2 Percolated fur, huddle reflex, responds to stimuli (such as tap on cage), just as active during handling as healthy mouse. • 3 Slower response to tap on cage, passive or docile when handled, but still curious when alone in a new setting. • 4 Lack of curiosity, little or no response to stimuli, quite immobile. • 5 Labored breathing, inability or slow to self-right after being rolled onto back (moribund, sacrificed). • D Dead.
# A second set of septic shock experiments were set up to determine which of the peptides LQG, LQGV (SEQ ID NO:117), VLPALP (SEQ ID NO:140), VLPALPQ (SEQ ID NO:143), MTR, MTRV (SEQ ID NO:119), VVC or AQG, AQGV (SEQ ID NO:120), LAG and LAGV (SEQ ID NO:121) were capable of inhibiting high dose LPS-induced septic shock in mice by treating mice with a double dose of peptide at two and 24 hours after LPS treatment. At each treatment, peptides were used at 5 mg/kg bodyweight. BALB/c mice were injected i.p. with high doses LPS (E. coli 026:B6; Difco Lab., Detroit, Mich. USA), predetermined to be leading to 80 to 100% mortality in 24 to 72 hours.
# [3] = system: LPS (E. coli 026:B6)-induced sepsis in BALB/c mice; assay: endotoxin shock survival after early or late treatment with peptide
# Method: as §1, §2
# A further set of septic shock experiments were set up to determine which of the peptides LQG, LQGV (SEQ ID NO:117), VLPALP (SEQ ID NO:140), VLPALPQ (SEQ ID NO:143), MTR, MTRV (SEQ ID NO:119), VVC or AQGV (SEQ ID NO:120) under study were most suited to be used early and/or late after or throughout the development of shock. For determining the percent of endotoxin shock survival after late or early treatment with peptide, BALB/c mice were injected i.p. with 300 μg LPS (E. coli 026:B6; Difco Lab., Detroit, Mich. USA), predetermined to be leading to 100% mortality in 48 hours without peptide treatment.
# To evaluate the effect of peptide treatment at an early or late point in time of development of shock, mice were treated at two hours or at 24 hours after LPS injection by i.p. injection with test peptide at 5 mg/kg bodyweight. The mice were followed for 84 hours instead of for 48 hours in the earlier experiments.
# [4] = 0 hours, peptide 5 mg/kg 2 hours after LPS
# [5] = 0 hours, peptide 5 mg/kg 24 hours after LPS
# [6] = 14 hours, peptide 5 mg/kg 2 hours after LPS
# [7] = 14 hours, peptide 5 mg/kg 24 hours after LPS
# [8] = 24 hours, peptide 5 mg/kg 2 hours after LPS
# [9] = 24 hours, peptide 5 mg/kg 24 hours after LPS
# [10] = 48 hours, peptide 5 mg/kg 2 hours after LPS
# [11] = 48 hours, peptide 5 mg/kg 24 hours after LPS
# [12] = 84 hours, peptide 5 mg/kg 2 hours after LPS
# [13] = 84 hours, peptide 5 mg/kg 24 hours after LPS
# [14] = 5 mg/kg given both early (2 hours) or late (24 hours)
substance,measurement,setting,value
LAGV (tetramer peptide),BUN concentration versus the PBS control group (in words),[1],reduced BUN concentration
same,mortality versus the PBS control group (in words),[1],significant reduction in mortality
same,mortality at 72 hours post-reperfusion,[1],6/10
same,"BUN after 25 minutes renal ischemia, mean",[1]; 2 hours after reperfusion,14.03
same,"BUN after 25 minutes renal ischemia, mean",[1]; 24 hours after reperfusion,38.86
same,"BUN after 25 minutes renal ischemia, mean",[1]; 72 hours after reperfusion,32.8875
same,"BUN after 25 minutes renal ischemia, mean",[1]; t = 0 hr (before clamping),8.167
same,"mice scored D (dead), effect at t = 48 hours",[2]; LPS dose 10.5,4
same,"mice with sickness score 3, effect at t = 24 hours",[2]; LPS dose 10.5,1
same,"mice with sickness score 3, effect at t = 48 hours",[2]; LPS dose 10.5,1
same,"mice with sickness score 5, effect at t = 24 hours",[2]; LPS dose 10.5,4
same,"mice scored D (dead), effect at t = 24 hours",[2]; LPS dose 11,1
same,"mice scored D (dead), effect at t = 48 hours",[2]; LPS dose 11,4
same,"mice with sickness score 3, effect at t = 24 hours",[2]; LPS dose 11,1
same,"mice with sickness score 3, effect at t = 48 hours",[2]; LPS dose 11,2
same,"mice with sickness score 4, effect at t = 24 hours",[2]; LPS dose 11,1
same,"mice with sickness score 5, effect at t = 24 hours",[2]; LPS dose 11,3
VLPALP (hexamer peptide),"BUN after 25 minutes renal ischemia, mean",[1]; 2 hours after reperfusion,16.24
same,"BUN after 25 minutes renal ischemia, mean",[1]; 24 hours after reperfusion,62.4
same,"BUN after 25 minutes renal ischemia, mean",[1]; 72 hours after reperfusion,47.05
same,"BUN after 25 minutes renal ischemia, mean",[1]; t = 0 hr (before clamping),8.423
same,"mice scored D (dead), effect at t = 48 hours",[2]; LPS dose 10.5,5
same,"mice with sickness score 5, effect at t = 24 hours",[2]; LPS dose 10.5,5
same,"mice scored D (dead), effect at t = 48 hours",[2]; LPS dose 11,6
same,"mice with sickness score 4, effect at t = 24 hours",[2]; LPS dose 11,2
same,"mice with sickness score 4, effect at t = 48 hours",[2]; LPS dose 11,1
same,"mice with sickness score 5, effect at t = 24 hours",[2]; LPS dose 11,4
same,% Survival,[3]; [4],100%
same,% Survival,[3]; [5],100%
same,% Survival,[3]; [6],100%
same,% Survival,[3]; [7],100%
same,% Survival,[3]; [8],100%
same,% Survival,[3]; [9],100%
same,% Survival,[3]; [10],100%
same,% Survival,[3]; [11],0%
same,% Survival,[3]; [12],100%
same,% Survival,[3]; [13],0%
AQGV,Mortality in dose-response experiment,"[1]; 0.3 mg/kg, 24 hours",0-9
same,Urea levels in dose-response experiment,"[1]; 0.3 mg/kg, 24 hours",62.4
same,Mortality in dose-response experiment,"[1]; 0.3 mg/kg, 72 hours",2-10
same,Urea levels in dose-response experiment,"[1]; 0.3 mg/kg, 72 hours",86.7
same,Mortality in dose-response experiment,"[1]; 1.0 mg/kg, 24 hours",0-10
same,Urea levels in dose-response experiment,"[1]; 1.0 mg/kg, 24 hours",50.0
same,Mortality in dose-response experiment,"[1]; 1.0 mg/kg, 72 hours",1-8
same,Urea levels in dose-response experiment,"[1]; 1.0 mg/kg, 72 hours",52.6
same,Mortality in dose-response experiment,"[1]; 3.0 mg/kg, 24 hours",1-10
same,Urea levels in dose-response experiment,"[1]; 3.0 mg/kg, 24 hours",37.4
same,Mortality in dose-response experiment,"[1]; 3.0 mg/kg, 72 hours",0-10
same,Urea levels in dose-response experiment,"[1]; 3.0 mg/kg, 72 hours",19.6
same,BUN concentration versus the PBS control group (in words),[1],reduced BUN concentration
same,mortality versus the PBS control group (in words),[1],significant reduction in mortality
same,mortality at 72 hours post-reperfusion,[1],0/10
same,Mortality in dose-response experiment,"[1]; 10.0 mg/kg, 24 hours",0-10
same,Urea levels in dose-response experiment,"[1]; 10.0 mg/kg, 24 hours",41.2
same,Mortality in dose-response experiment,"[1]; 10.0 mg/kg, 72 hours",0-8
same,Urea levels in dose-response experiment,"[1]; 10.0 mg/kg, 72 hours",37.1
same,Mortality in dose-response experiment,"[1]; 30.0 mg/kg, 24 hours",0-8
same,Urea levels in dose-response experiment,"[1]; 30.0 mg/kg, 24 hours",47.8
same,Mortality in dose-response experiment,"[1]; 30.0 mg/kg, 72 hours",3-10
same,Urea levels in dose-response experiment,"[1]; 30.0 mg/kg, 72 hours",38.0
same,"BUN after 25 minutes renal ischemia, mean",[1]; 2 hours after reperfusion,16.62
same,"BUN after 25 minutes renal ischemia, mean",[1]; 24 hours after reperfusion,26.36
same,"BUN after 25 minutes renal ischemia, mean",[1]; 72 hours after reperfusion,22.31
same,"BUN after 25 minutes renal ischemia, mean",[1]; t = 0 hr (before clamping),9.713
same,"mice with sickness score 1, effect at t = 24 hours",[2]; LPS dose 10.5,2
same,"mice with sickness score 1, effect at t = 48 hours",[2]; LPS dose 10.5,5
same,"mice with sickness score 2, effect at t = 24 hours",[2]; LPS dose 10.5,3
same,"mice with sickness score 1, effect at t = 24 hours",[2]; LPS dose 11,2
same,"mice with sickness score 1, effect at t = 48 hours",[2]; LPS dose 11,6
same,"mice with sickness score 2, effect at t = 24 hours",[2]; LPS dose 11,4
same,% Survival,[3]; [4],100%
same,% Survival,[3]; [5],100%
same,clinical signs of shock at 84 hours after LPS-treatment (in words),[3]; [14],no remaining clinical signs of shock
same,survival at 84 hours after LPS-treatment,[3]; [14],100%
same,% Survival,[3]; [6],100%
same,% Survival,[3]; [7],100%
same,% Survival,[3]; [8],100%
same,% Survival,[3]; [9],100%
same,% Survival,[3]; [10],100%
same,% Survival,[3]; [11],100%
same,% Survival,[3]; [12],100%
same,% Survival,[3]; [13],100%
